Target: wild-type human cardiac sodium channel, hNav1.5 (Homo sapiens, UniProt Q14524)
Test: Late INa screening assay (late sodium current, PatchXpress whole cell patch clamp)
Type: cell-based
Conditions: compound at 10 μM; read-out: Late INa % blk

Sequence of wild-type human cardiac sodium channel, hNav1.5 (Q14524 whole entry): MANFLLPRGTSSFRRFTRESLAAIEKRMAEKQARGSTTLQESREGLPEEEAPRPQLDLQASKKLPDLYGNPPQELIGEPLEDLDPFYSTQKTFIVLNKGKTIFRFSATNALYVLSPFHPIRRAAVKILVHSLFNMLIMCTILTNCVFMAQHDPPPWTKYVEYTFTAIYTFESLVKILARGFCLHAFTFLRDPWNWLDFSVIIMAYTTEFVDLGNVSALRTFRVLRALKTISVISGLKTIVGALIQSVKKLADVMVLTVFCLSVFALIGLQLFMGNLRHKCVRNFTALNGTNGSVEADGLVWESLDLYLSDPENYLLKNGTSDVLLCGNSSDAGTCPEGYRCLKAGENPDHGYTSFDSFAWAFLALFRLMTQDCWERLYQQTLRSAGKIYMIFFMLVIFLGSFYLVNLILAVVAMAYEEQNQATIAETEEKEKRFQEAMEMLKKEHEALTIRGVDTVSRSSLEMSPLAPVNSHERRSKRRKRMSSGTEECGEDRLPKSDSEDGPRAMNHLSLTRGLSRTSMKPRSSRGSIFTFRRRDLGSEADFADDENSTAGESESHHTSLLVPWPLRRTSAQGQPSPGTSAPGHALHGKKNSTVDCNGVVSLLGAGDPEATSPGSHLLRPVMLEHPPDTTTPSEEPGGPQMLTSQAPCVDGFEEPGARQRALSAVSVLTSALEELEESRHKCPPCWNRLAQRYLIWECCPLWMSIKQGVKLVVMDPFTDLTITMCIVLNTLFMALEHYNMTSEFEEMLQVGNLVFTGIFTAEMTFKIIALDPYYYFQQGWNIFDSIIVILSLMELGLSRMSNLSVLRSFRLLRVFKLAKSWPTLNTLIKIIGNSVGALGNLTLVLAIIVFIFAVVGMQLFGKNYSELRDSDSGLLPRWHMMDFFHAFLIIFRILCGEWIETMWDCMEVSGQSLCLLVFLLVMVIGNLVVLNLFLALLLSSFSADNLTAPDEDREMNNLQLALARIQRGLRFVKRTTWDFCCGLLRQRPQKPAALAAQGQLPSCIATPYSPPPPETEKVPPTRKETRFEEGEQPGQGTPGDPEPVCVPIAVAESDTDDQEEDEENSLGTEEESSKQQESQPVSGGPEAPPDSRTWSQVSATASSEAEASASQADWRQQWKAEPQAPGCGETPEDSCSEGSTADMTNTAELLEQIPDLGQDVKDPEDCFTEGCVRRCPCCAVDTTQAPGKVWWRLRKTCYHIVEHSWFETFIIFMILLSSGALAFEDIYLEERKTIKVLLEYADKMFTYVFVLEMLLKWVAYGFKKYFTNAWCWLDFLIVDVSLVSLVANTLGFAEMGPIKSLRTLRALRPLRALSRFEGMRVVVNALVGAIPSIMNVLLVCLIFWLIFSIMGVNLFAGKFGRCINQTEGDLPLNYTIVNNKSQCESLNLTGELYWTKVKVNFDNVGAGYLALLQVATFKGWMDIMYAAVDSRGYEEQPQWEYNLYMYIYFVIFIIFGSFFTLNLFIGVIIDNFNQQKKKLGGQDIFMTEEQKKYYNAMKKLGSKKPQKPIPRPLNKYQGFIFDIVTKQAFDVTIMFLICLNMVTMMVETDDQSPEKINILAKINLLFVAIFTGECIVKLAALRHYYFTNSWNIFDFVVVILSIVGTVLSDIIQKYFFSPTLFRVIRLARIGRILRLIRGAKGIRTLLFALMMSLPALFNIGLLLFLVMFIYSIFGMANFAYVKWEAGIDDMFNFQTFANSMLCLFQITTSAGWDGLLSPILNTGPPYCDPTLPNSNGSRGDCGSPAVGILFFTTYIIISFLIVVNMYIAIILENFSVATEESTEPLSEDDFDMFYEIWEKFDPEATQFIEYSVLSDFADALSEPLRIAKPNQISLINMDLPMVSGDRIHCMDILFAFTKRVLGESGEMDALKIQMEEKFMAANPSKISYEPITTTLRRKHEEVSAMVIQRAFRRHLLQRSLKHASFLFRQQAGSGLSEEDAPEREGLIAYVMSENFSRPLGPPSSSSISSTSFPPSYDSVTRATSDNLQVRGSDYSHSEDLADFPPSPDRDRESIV

Structure (SMILES) | inhibition at 10 µM [%]
CCOC(=O)C1=C(C)Nc2ccnn2C1c1c(Br)sc2ccccc12 (centres unmarked) [PT-488, ethyl 7-(2-bromobenzo[b]thiophen-3-yl)-5-methyl-4,7-dihydropyrazolo[1,5-a]pyrimidine-6-carboxylate] | 82.3
COc1cc(Cl)ccc1COC(=O)C1=C(C)Nc2nnnn2C1c1cccc2ccccc12 (centres unmarked) [PT-304, 4-chloro-2-methoxybenzyl 5-methyl-7-(naphthalen-1-yl)-4,7-dihydrotetrazolo[1,5-a]pyrimidine-6-carboxylate] | 63
CCn1c2ccccc2c2cc(C3C(C(=O)OCc4ccccc4)=C(C)Nc4nnnn43)ccc21 (centres unmarked) [PT-422, benzyl 7-(9-ethyl-9H-carbazol-3-yl)-5-methyl-4,7-dihydrotetrazolo[1,5-a]pyrimidine-6-carboxylate] | 35.2
CCCC1=C(C(=O)OCC)C(c2ccsc2)C2=C(CCCC2=O)N1 (centres unmarked) [PT-148, ethyl 5-oxo-2-propyl-4-(thiophen-3-yl)-1,4,5,6,7,8-hexahydroquinoline-3-carboxylate] | 7.6
COc1cc(N(C)C)ccc1C1C(C(=O)OCc2ccccc2)=C(C)Nc2nnnn21 (centres unmarked) [PT-408, benzyl 7-(4-(dimethylamino)-2-methoxyphenyl)-5-methyl-4,7-dihydrotetrazolo[1,5-a]pyrimidine-6-carboxylate] | 30.4
CCOC(=O)C1=C(C)NC(C)=C(C(=O)OCC)C1c1ccccc1-c1ccccc1 [PT-438, diethyl 4-(biphenyl-2-yl)-2,6-dimethyl-1,4-dihydropyridine-3,5-dicarboxylate] | 20.9
CCOC(=O)C1=C(C)NC2=C(C(=O)CC(C)(C)C2)C1c1cccc(C(=O)O)c1 (centres unmarked) [PT-132, 3-(3-(ethoxycarbonyl)-2,7,7-trimethyl-5-oxo-1,4,5,6,7,8-hexahydroquinolin-4-yl)benzoic acid] | -5.3
O=C1CCCC2=C1C(c1cccc3ccccc13)n1nnnc1N2 (centres unmarked) [PT-072, 9-(naphthalen-1-yl)-5,6,7,9-tetrahydrotetrazolo[5,1-b]quinazolin-8(4H)-one] | -0.9
CC1=C(C(=O)OCc2ccccc2)C(c2cccc3ncccc23)n2nnnc2N1 (centres unmarked) [PT-038, benzyl 5-methyl-7-(quinolin-5-yl)-4,7-dihydrotetrazolo[1,5-a]pyrimidine-6-carboxylate] | 11.9
CCOC(=O)c1c(C)nc2[nH]ncc2c1-c1ccccc1-c1cccc(C(C)=O)c1 [PT-450, ethyl 4-(3′-acetylbiphenyl-2-yl)-6-methyl-1H-pyrazolo[3,4-b]pyridine-5-carboxylate] | 7.3
COc1cccc(OCc2ccccc2)c1C1C(C(=O)OCc2ccccc2)=C(C)Nc2nnnn21 (centres unmarked) [PT-382, benzyl 7-(2-(benzyloxy)-6-methoxyphenyl)-5-methyl-4,7-dihydrotetrazolo[1,5-a]pyrimidine-6-carboxylate] | 13.9
CC1=C(C(=O)OCc2ccccc2)C(c2sccc2B(O)O)n2nnnc2N1 (centres unmarked) [PT-256, 2-(6-(benzyloxycarbonyl)-5-methyl-4,7-dihydrotetrazolo[1,5-a]pyrimidin-7-yl)thiophen-3-ylboronic acid] | 25.7
CCOC(=O)C1=C(C)Nc2[nH]nc(-c3ccc(C)cc3)c2C1c1cccc2ccccc12 (centres unmarked) [PT-073, ethyl 6-methyl-4-(naphthalen-1-yl)-3-p-tolyl-4,7-dihydro-1H-pyrazolo[3,4-b]pyridine-5-carboxylate] | -3.2
CC1=C(C(=O)OCc2ccccc2)C(c2cccc3ccccc23)n2ncc(-c3ccccc3)c2N1 (centres unmarked) [PT-362, benzyl 5-methyl-7-(naphthalen-1-yl)-3-phenyl-4,7-dihydropyrazolo[1,5-a]pyrimidine-6-carboxylate] | 14.4
CC1=C(C(=O)OCc2ccccc2)C(c2cccc3cccnc23)n2nnnc2N1 (centres unmarked) [PT-037, benzyl 5-methyl-7-(quinolin-8-yl)-4,7-dihydrotetrazolo[1,5-a]pyrimidine-6-carboxylate] | 34.4
CCOC(=O)C1=C(C)Nc2nnnn2C1c1cccc(Oc2cccc(C(=O)O)c2)c1 (centres unmarked) [PT-274, 3-(3-(6-(ethoxycarbonyl)-5-methyl-4,7-dihydrotetrazolo[1,5-a]pyrimidin-7-yl)phenoxy)benzoic acid] | 16.8
CCOC(=O)C1=C(C(C)=O)C(c2cccc3ccccc23)n2nnnc2N1 (centres unmarked) [PT-465, ethyl 6-acetyl-7-(naphthalen-1-yl)-4,7-dihydrotetrazolo[1,5-a]pyrimidine-5-carboxylate] | 10.5
CC1=C(C(=O)OCc2ccccc2)C(c2cc3ccccc3s2)n2nnnc2N1 (centres unmarked) [PT-043, benzyl 7-(benzo[b]thiophen-2-yl)-5-methyl-4,7-dihydrotetrazolo[1,5-a]pyrimidine-6-carboxylate] | 53.8
COc1ccc(C2C(C(=O)OCc3ccccc3)=C(C)Nc3nnnn32)c2ccccc12 (centres unmarked) [PT-421, benzyl 7-(4-methoxynaphthalen-1-yl)-5-methyl-4,7-dihydrotetrazolo[1,5-a]pyrimidine-6-carboxylate] | 23.5

Structure (SMILES) | inhibition at 10 µM [%]
CCOC(=O)c1ccc(COc2ccccc2C2C(C(=O)OCc3ccccc3)=C(C)Nc3nnnn32)cc1 (centres unmarked) [PT-377, benzyl 7-(2-(4-(ethoxycarbonyl)benzyloxy)phenyl)-5-methyl-4,7-dihydrotetrazolo[1,5-a]pyrimidine-6-carboxylate] | 30.3
CCOC(=O)c1c(C)nc(C)c(C(=O)OCC)c1-c1sc2ccccc2c1C [PT-117, diethyl 2,6-dimethyl-4-(3-methylbenzo[b]thiophen-2-yl)pyridine-3,5-dicarboxylate] | 38.9
CCOC(=O)C1=C(C)Nc2nnnn2C1c1cccc(OCc2cccc(C(=O)O)c2)c1 (centres unmarked) [PT-269, 3-((3-(6-(ethoxycarbonyl)-5-methyl-4,7-dihydrotetrazolo[1,5-a]pyrimidin-7-yl)phenoxy)methyl)benzoic acid] | 12.3
CC1=C(C(=O)OCc2ccccc2-c2ccccc2)C(c2cccc3ccccc23)n2nnnc2N1 (centres unmarked) [PT-005, biphenyl-2-ylmethyl 5-methyl-7-(naphthalen-1-yl)-4,7-dihydrotetrazolo[1,5-a]pyrimidine-6-carboxylate] | 25.4
O=C1OCc2nc3[nH]ncc3c(-c3cccc4ccccc34)c21 [PT-301, 4-(naphthalen-1-yl)-1H-furo[3,4-e]pyrazolo[3,4-b]pyridin-5(7H)-one] | 21.6
CCOC(=O)C1=C(C)Nc2ccnn2C1c1cccc(Oc2ccccc2)c1 (centres unmarked) [PT-463, ethyl 5-methyl-7-(3-phenoxyphenyl)-4,7-dihydropyrazolo[1,5-a]pyrimidine-6-carboxylate] | 42.3
CCOC(=O)C1=C(C)Nc2nccn2C1c1cccc2ccccc12 (centres unmarked) [PT-087, ethyl 7-methyl-5-(naphthalen-1-yl)-5,8-dihydroimidazo[1,2-a]pyrimidine-6-carboxylate] | 16.5
CC1=C(C(=O)OCc2ccccc2)C(c2cc3ccccc3s2)C2=C(CCCC2=O)N1 (centres unmarked) [PT-335, benzyl 4-(benzo[b]thiophen-2-yl)-2-methyl-5-oxo-1,4,5,6,7,8-hexahydroquinoline-3-carboxylate] | 58.1
CC1=C(C(=O)NNC(=O)Cc2ccccc2)C(c2cccc3ccccc23)n2nnnc2N1 (centres unmarked) [PT-309, 5-methyl-7-(naphthalen-1-yl)-N′-(2-phenylacetyl)-4,7-dihydrotetrazolo[1,5-a]pyrimidine-6-carbohydrazide] | 8.2
CC1=C(C(=O)OCc2ccc(-c3ccccc3)cc2)C(c2cccc3ccccc23)n2nnnc2N1 (centres unmarked) [PT-004, biphenyl-4-ylmethyl 5-methyl-7-(naphthalen-1-yl)-4,7-dihydrotetrazolo[1,5-a]pyrimidine-6-carboxylate] | 25.5
CC1=C(C(=O)OCc2ccccc2)C(c2ccc(Br)cc2F)n2nnnc2N1 (centres unmarked) [PT-416, benzyl 7-(4-bromo-2-fluorophenyl)-5-methyl-4,7-dihydrotetrazolo[1,5-a]pyrimidine-6-carboxylate] | 25.6
CC1=C(C(=O)OCc2ccccc2)[C@@H](c2ccccc2-c2cccc(F)c2)n2nnnc2N1 [PT-240, (R)-benzyl 7-(3′-fluorobiphenyl-2-yl)-5-methyl-4,7-dihydrotetrazolo[1,5-a]pyrimidine-6-carboxylate] | 85
CCOC(=O)C1=C(C)NC(C)=C(C(=O)OCC)C1c1ccc(-c2ccccc2C(F)(F)F)o1 [PT-119, diethyl 2,6-dimethyl-4-(5-(2-(trifluoromethyl)phenyl)furan-2-yl)-1,4-dihydropyridine-3,5-dicarboxylate] | 3.8
CC1=C(C(=O)N2CCc3ccccc3C2)C(c2cccc3ccccc23)C2=C(CCCC2=O)N1 (centres unmarked) [PT-171, 2-methyl-4-(naphthalen-1-yl)-3-(1,2,3,4-tetrahydroisoquinoline-2-carbonyl)-4,6,7,8-tetrahydroquinolin-5(1H)-one] | 20.2
CCOC(=O)C1=C(C)Nc2nnnn2C1c1ccccc1OCc1cccc(C(=O)OC)c1 (centres unmarked) [PT-480, ethyl 7-(2-(3-(methoxycarbonyl)benzyloxy)phenyl)-5-methyl-4,7-dihydrotetrazolo[1,5-a]pyrimidine-6-carboxylate] | 5.4
CC1=C(C(=O)OCc2ccccc2)C(c2ccsc2B(O)O)n2nnnc2N1 (centres unmarked) [PT-277, 3-(6-(benzyloxycarbonyl)-5-methyl-4,7-dihydrotetrazolo[1,5-a]pyrimidin-7-yl)thiophen-2-ylboronic acid] | 18
CC1=C(C(=O)OCc2ccc(OC(F)(F)F)cc2)C(c2cccc3ccccc23)n2nnnc2N1 (centres unmarked) [PT-052, 4-(trifluoromethoxy)benzyl 5-methyl-7-(naphthalen-1-yl)-4,7-dihydrotetrazolo[1,5-a]pyrimidine-6-carboxylate] | 9.1
CC1=C(C(=O)OCc2ccc(I)cc2)C(c2cccc3ccccc23)n2nnnc2N1 (centres unmarked) [PT-029, 4-iodobenzyl 5-methyl-7-(naphthalen-1-yl)-4,7-dihydrotetrazolo[1,5-a]pyrimidine-6-carboxylate] | 52.1
CC1=C(C(=O)OCc2cccc(C#N)c2)C(c2cccc3ccccc23)n2nnnc2N1 (centres unmarked) [PT-278, 3-cyanobenzyl 5-methyl-7-(naphthalen-1-yl)-4,7-dihydrotetrazolo[1,5-a]pyrimidine-6-carboxylate] | 63.9

Reference: patent publication US20090012103A1, “SUBSTITUTED HETEROCYCLIC COMPOUNDS” (priority 2007, published 2009)
